Results published in patent US4428963A, “Novel thiophene derivatives” (Hoffmann-La Roche Inc., priority 1983, dated 1984).

Tests used:
[1] = tested on: Cholesterol Synthesis (liver); assay: In vivo cholesterogenesis in rat liver after intraperitoneal administration (Table II); details: i.p. 0.1 mmoles/kg
Procedure: (§1) Rats are prepared by fasting 48 hours and refeeding a 1% corn oil 70% glucose diet for several days (5-15). On the experimental day, rats are dosed 30 or 60 minutes before the 3 hour meal by oral intubation, or 60 minutes after the end of the 3 hour meal by intraperitoneal injection. (The dose concentrated is a mmoles/kg/5-10 ml H2 O or 1% gum arabic depending on the solubility of the compound.) Rats are sacrificed by decapitation after a 30 minute pulse consisting of: 1mCi^3 H2 O,5 μCi[U-^14 C]alanine, 12.3 mg. alanine, and 30.6 mg α-ketoglutaric acid in […], given at the end of the 3 hour meal by i.v. injection into the tail vein. Blood was collected, allowed to clot and the serum analyzed for triglyceride and cholesterol levels. […] At this stage the lipids are either counted (to determine the rate of lipogenesis) or precipitated with digitonin, washed, and counted (to determine the rate of cholesterogenesis). The conversion of ^3 H2 O and [^14 C]alanine into fatty acids or sterols is determined in a PDS/3, Mark II liquid scintillation counting system. Data are expressed as moles ^3 H2 O nmoles converted into fatty acids and cholesterol per g liver per 30 minutes. […]
(§2) sacrificed and rates of synthesis determined.
(§3) ^b Data are expressed as μmoles ^3 H2 O and moles[ ^1 […]

[2] = tested on: Fatty Acid Synthesis (liver); assay: In vivo fatty acid synthesis in rat liver after oral administration (Table IV); details: oral 1.2 mmoles/kg
Procedure: (§4) Rats are prepared by fasting 48 hours and refeeding a 1% corn oil 70% glucose diet for several days (5-15). On the experimental day, rats are dosed 30 or 60 minutes before the 3 hour meal by oral intubation, or 60 minutes after the end of the 3 hour meal by intraperitoneal injection. (The dose concentrated is a mmoles/kg/5-10 ml H2 O or 1% gum arabic depending on the solubility of the compound.) Rats are sacrificed by decapitation after a 30 minute pulse consisting of: 1mCi^3 H2 O,5 μCi[U-^14 C]alanine, 12.3 mg. alanine, and 30.6 mg α-ketoglutaric acid in […], given at the end of the 3 hour meal by i.v. injection into the tail vein. Blood was collected, allowed to clot and the serum analyzed for triglyceride and cholesterol levels. The livers are quickly excised, saponified, and acidified (only for determining the rate of lipogenesis) and extracted with hexane. At this stage the lipids are either counted (to determine the rate of lipogenesis) or precipitated with digitonin, washed, and counted (to determine the rate of cholesterogenesis). The conversion of ^3 H2 O and [^14 C]alanine into fatty acids or sterols is determined in a PDS/3, Mark II liquid scintillation counting system. Data are expressed as moles ^3 H2 O nmoles converted into fatty acids and cholesterol per g liver per 30 minutes.
(§5) ^a Charles River CD rats (6 rats per group at 160-180 g) were fasted
(§6) 48 hours, then mealfed a high carbohydrate diet for 18 days. On the
(§7) experimental day, rats were given an oral dose (1% gum arabic or
(§8) 3amino-4-carbomethoxy-2-n-propylthiophene hydrochloride in 1% gum arabic
(§9) at the above concentrations) 30 minutes before the beginning of the meal.
(§10) At the end of the 3 hour meal, the rats were given an i.v. pulse,
sacrificed 30 minutes later and rates of synthesis were determined.
(§11) ^b Data are expressed as μmoles ^3 H2 O and nmoles
[^14 C]alanine converted into fatty acids per g liver per 30 minutes.

[3] = tested on: Cholesterol Synthesis (liver); assay: In vivo cholesterol synthesis in rat liver after oral administration (Table V); details: for Cholesterol Synthesis, 3H2O converted: control 1.35 ± 0.04; for Cholesterol Synthesis, [14C]alanine converted: control 33.0 ± 3.1
Procedure: as §4, §5, §6, §7, §8, §9, §10
sacrificed 30 minutes later, and rates of synthesis were determined.
as §11
[^14 C]alanine converted into cholesterol per g liver per 30 minutes.

[4] = tested on: Fatty Acid Synthesis (liver); assay: In vivo lipogenesis in rat liver after intraperitoneal administration (Table II); details: i.p. 0.1 mmoles/kg; control 614 ± 66
Procedure: as §1, §2, §3

[5] = Serum lipids after intraperitoneal administration (Table III); assay type: in vivo, rat; details: i.p. 0.1 mmoles/kg
Procedure: as §4, with “minutes. […]” for “minutes.”
as §2

[6] = Total body fat and protein in ad libitum high fat fed rats, 63 day study (Table IX); assay type: in vivo, rat; details: dietary admixture 71 then (day 33) 130 mg/kg/day, 63 days
Procedure: (§12) As previously mentioned, the compounds disclosed and claimed herein are also useful as antiobesity agents. […] Groups of 10 rats were fed ad libitum a 10% corn oil, 60% glucose diet in accordance with the methodology described in Sullivan et al., Am. J. Clin. Nutr. 30:767-776 (1977). The effect of 4-amino-5-ethyl-3-thiophene carboxylic acid methyl ester hydrochloride on body weight, total body fat and protein was determined. The results are tabulated in Example 35 (Table VIII and Table IX) of the specification.
(§13) The antiobesity activity of 4-amino-5-ethyl-3-thiophene carboxylic acid methyl ester hydrochloride (Compound A) was evaluated in a long-term chronic experiment in which body weight gain and food consumption were monitored at least biweekly. The study was conducted on Charles River rats receiving 10% corn oil: 60% glucose (high fat) diets. For the first 32 days of this study a dose of approximately 71 mg./kg. body weight/day was given. From day 33 until the end of the study the average daily dose was increased to 130 mg./kg. body weight/day. The study included a group of rats pair-fed to the Compound A treated rats, i.e., the pair-fed animals received the same amount of food as their Compound A paired rat consumed on the previous day. Pair feeding was terminated several days after food intake in the Compound A treated groups returned to control levels. Pair-feeding to the Compound A treated group was terminated on day 22. Upon termination of the study, carcass lipid and protein levels, serum lipids and hepatic rates of fatty acid synthesis in vivo were determined. A summary of the initial and final body weights, cumulative weight gained and food consumed and average daily food intake is presented in Table VIII.
(§14) ^a Female Charles River rats (10 rats per group) were fed ad libitum
(§15) the 10% corn oil:60% glucose diet. On day 1 of the experiment rats were
(§16) divided into three groups: (1) control, (2) Compound A as a dietary
admixture (71 mg/kg body weight/day), and (3) pairfed to the Compound A
treated group. Pairfeeding was terminated on day 22. On day 33 the
concentration of Compound A was increased to 130 mg/kg/day.

[7] = tested on: Hepatic Cholesterol Synthesis; assay: Hepatic cholesterol synthesis after oral administration at increasing concentrations (Table VI); assay type: in vivo, rat; details: oral gavage, 0.4 to 1.2 mmoles/kg over 10 days
Procedure: as §4
(§17) ^a Charles River female rats were fasted 48 hr, then mealfed (8 to 11
(§18) a.m.) a high carbohydrate diet for 14 days. Rats weighing 180 to 210 g (1
(§19) in each group) were dosed by gastric gavage, with either 1% gum arabic or
(§20) Compound A in 1% gum arabic. The initial dose was 0.4 mmoles (89 mg) per
(§21) kg body weight and was increased by 0.2 mmoles (44 mg) per kg body weight
(§22) every other day. The experimental period consisted of 10 days, and the
(§23) doses given were 0.4, 0.6, 0.8, 1.0 and 1.2 mmoles per kg. All rats were
(§24) fed 1/2 hr after the oral dose. On the 10th day, following the 3 hr meal,
(§25) each rat received an intravenous injection (consisting of 5 μCi
(§26) [U^14 C]alanine, 1 mCi ^3 H2 O, 12.3 mg alanine and 30.6 mg
(§27) ketoglutaric acid) and was killed 30 min later. Livers were quickly
(§28) excised, saponified, and extracted for fatty acids or cholesterol. Data
(§29) are expressed as μmoles ^3 H2 O or nmoles [^14 C]alanine
(§30) converted into fatty acids or cholesterol per gram liver per 30 min.
(§31) Each value is the mean ± SE.

[8] = Serum triglycerides, cholesterol, insulin and glucose after oral administration at increasing concentrations (Table VII); assay type: in vivo, rat; details: oral gavage, 0.4 to 1.2 mmoles/kg over 10 days
Procedure: as §4, §17, §18, §19, §20, §21, §22, §23
fed 1/2 hr after the oral dose. On the 10th day, following the 3 hr meal
as §25, §26
ketoglutaric acid) and was killed 30 min later. Blood was collected,
allowed to clot and serum analyzed.
Each value is the mean ±SE

[9] = tested on: Hepatic Fatty Acid Synthesis; assay: Hepatic fatty acid synthesis after oral administration at increasing concentrations (Table VI); assay type: in vivo, rat; details: oral gavage, 0.4 to 1.2 mmoles/kg over 10 days
Procedure: as §4, §17, §18, §19, §20, §21, §22, §23, §24, §25, §26, §27, §28, §29, §30, §31

[10] = Body weight and food intake in ad libitum high fat fed rats, 63 day study (Table VIII); assay type: in vivo, rat
Procedure: as §12, §13, §14, §15, §16
admixture (71 mg/kg body weight/day, and (3) pairfed to the Compound A
treated group. Pairfeeding was terminated on day 23. On day 33 the
concentraton of Compound A was increased to 130 mg/kg/day.

[11] = oral 0.4 nmoles/kg (so in the source)

Structure (SMILES): CCCc1scc(C(=O)OC)c1N.Cl [3-amino-4-carbomethoxy-2-n-propylthiophene hydrochloride]
- Cholesterol Synthesis, 3H2O converted ([1]; control 1.36 ± 0.07): 0.85 ± 0.06 μmoles/g/30 min.
- Cholesterol Synthesis, [14C]alanine converted ([1]; control 35.7 ± 3.2): 17.6 ± 1.9 nmoles/g/30 min
- Fatty Acid Synthesis, 3H2O, % of Control [2]: 36 % of Control
- Fatty Acid Synthesis, [14C]alanine, % of Control [2]: 34 % of Control
- Fatty Acid Synthesis, 3H2O converted ([2]; control 19.6 ± 2.4): 7.1 ± 1.7 μmoles/g/30 min.
- Fatty Acid Synthesis, [14C]alanine converted ([2]; control 473 ± 76): 162 ± 60 nmoles/g/30 min.
- Cholesterol Synthesis, 3H2O, % of Control [3, 11]: 71 % of Control
- Cholesterol Synthesis, [14C]alanine, % of Control [3, 11]: 53 % of Control
- Cholesterol Synthesis, 3H2O converted [3, 11]: 0.96 ± 0.05 μmoles/g/30 min.
- Cholesterol Synthesis, [14C]alanine converted [3, 11]: 17.4 ± 0.9 nmoles/g/30 min.
- Cholesterol Synthesis, 3H2O, % of Control ([3]; oral 1.2 mmoles/kg): 65 % of Control
- Cholesterol Synthesis, [14C]alanine, % of Control ([3]; oral 1.2 mmoles/kg): 46 % of Control
- Cholesterol Synthesis, 3H2O converted ([3]; oral 1.2 mmoles/kg): 0.88 ± 0.16 μmoles/g/30 min.
- Cholesterol Synthesis, [14C]alanine converted ([3]; oral 1.2 mmoles/kg): 15.2 ± 3.2 nmoles/g/30 min.
- Fatty Acid Synthesis, [14C]alanine converted [4]: 251 ± 36 nmoles/g/30 min.
- Triglycerides (serum) ([5]; control 67 ± 4): 51 ± 3 mg %
- Cholesterol (serum) ([5]; control 116 ± 7): 105 ± 11 mg %

Structure (SMILES): CCc1scc(C(=O)OC)c1N.Cl [Compound A, 4-amino-5-ethyl-3-thiophenecarboxylic acid methyl ester hydrochloride]
- Protein, % of body weight ([6]; control 19.1 ± 1.6): 20.7 ± 1.4 % of body weight
- Lipid, % of body weight ([6]; control 23.5 ± 2.2): 16.5 ± 1.7 % of body weight
- Protein, total ([6]; control 54.1 ± 4.8): 52.7 ± 0.6 g
- Lipid, total ([6]; control 66.8 ± 7.1): 42.1 ± 4.5 g
- Cholesterol Synthesis, 3H2O (value in parentheses, relative to control) [7]: 120%
- Cholesterol Synthesis, [14C]alanine (value in parentheses, relative to control) [7]: 114%
- Cholesterol Synthesis, 3H2O ([7]; mean ± SE, control 0.50 ± 0.06): 0.60 ± 0.06 μmoles/g/30
- Cholesterol Synthesis, [14C]alanine ([7]; mean ± SE, control 13.9 ± 1.5): 15.8 ± 1.6 nmol/g/30 min
- Cholesterol (value in parentheses, relative to control) [8]: 81%
- Glucose (value in parentheses, relative to control) [8]: 97%
- Insulin (value in parentheses, relative to control) [8]: 49%
- Triglycerides (value in parentheses, relative to control) [8]: 62%
- Insulin (serum) ([8]; mean ± SE, control 3.85 ± 0.74): 1.91 ± 0.24 ng/mL
- Triglycerides (serum) ([8]; mean ± SE, control 51 ± 3): 31 ± 3 mg %
- Cholesterol (serum) ([8]; mean ± SE, control 97 ± 5): 79 ± 6 mg %
- Glucose (serum) ([8]; mean ± SE, control 165 ± 7): 160 ± 5 mg %
- Fatty Acid Synthesis, 3H2O (value in parentheses, relative to control) [9]: 49%
- Fatty Acid Synthesis, [14C]alanine (value in parentheses, relative to control) [9]: 42%
- Fatty Acid Synthesis, 3H2O ([9]; mean ± SE, control 36.7 ± 2.7): 18.0 ± 2.3 μmoles/g/30 min
- Fatty Acid Synthesis, [14C]alanine ([9]; mean ± SE, control 685 ± 59): 290 ± 49 nmoles/g/30 min
- IBW (initial body weight) ([10]; baseline of Compound A group, control 215 ± 3): 214 ± 3 g
- FI (food intake) ([10]; dietary admixture 71 then (day 33) 130 mg/kg/day, 63 days, control 17.7 ± 0.7, pair-fed 16.0 ± 0.4): 16.3 ± 0.4 g/day
- CBWG (cumulative body weight gain) ([10]; dietary admixture 71 then (day 33) 130 mg/kg/day, 63 days, control 68 ± 6, pair-fed 66 ± 6): 41 ± 4 g
- FBW (final body weight) ([10]; dietary admixture 71 then (day 33) 130 mg/kg/day, 63 days, control 282 ± 8, pair-fed 281 ± 6): 256 ± 4 g
- CFC (cumulative food consumption) ([10]; dietary admixture 71 then (day 33) 130 mg/kg/day, 63 days, control 1115.1 ± 44.1, pair-fed 1008.0 ± 25.2): 1026.9 ± 25.2 g
